# Test results: US12390508B2, “Brain natriuretic peptide engrafted antibodies” (Boehringer Ingelheim International GmbH, priority 2018, dated 2025)
# Positions of bridges follow the written chain, without caps; N, C: chain ends. Residues, ends and D or L forms follow the SMILES beside them.
# Legend:
# [1] = target: T1, neutral endopeptidase (NEP) (Homo sapiens, UniProt P08473); experiment: Sensitivity towards proteolytic degradation by neutral endopeptidase (NEP); type: in vitro ADME; details: 4 hours incubation with 0.6 μg/ml NEP at 37° C., then activity on the rat receptor cell line
# T1 construct: purchased R&D Systems 1182-ZNC
# [2] = target: T2, insulin degrading enzyme (IDE) (Rattus norvegicus, UniProt P35559); experiment: Sensitivity towards proteolytic degradation by insulin degrading enzyme (IDE); details: 4 hours incubation with 0.6 μg/ml IDE at 37° C., then activity on the rat receptor cell line
# T2 sequence (P35559 42-1019 limits assumed): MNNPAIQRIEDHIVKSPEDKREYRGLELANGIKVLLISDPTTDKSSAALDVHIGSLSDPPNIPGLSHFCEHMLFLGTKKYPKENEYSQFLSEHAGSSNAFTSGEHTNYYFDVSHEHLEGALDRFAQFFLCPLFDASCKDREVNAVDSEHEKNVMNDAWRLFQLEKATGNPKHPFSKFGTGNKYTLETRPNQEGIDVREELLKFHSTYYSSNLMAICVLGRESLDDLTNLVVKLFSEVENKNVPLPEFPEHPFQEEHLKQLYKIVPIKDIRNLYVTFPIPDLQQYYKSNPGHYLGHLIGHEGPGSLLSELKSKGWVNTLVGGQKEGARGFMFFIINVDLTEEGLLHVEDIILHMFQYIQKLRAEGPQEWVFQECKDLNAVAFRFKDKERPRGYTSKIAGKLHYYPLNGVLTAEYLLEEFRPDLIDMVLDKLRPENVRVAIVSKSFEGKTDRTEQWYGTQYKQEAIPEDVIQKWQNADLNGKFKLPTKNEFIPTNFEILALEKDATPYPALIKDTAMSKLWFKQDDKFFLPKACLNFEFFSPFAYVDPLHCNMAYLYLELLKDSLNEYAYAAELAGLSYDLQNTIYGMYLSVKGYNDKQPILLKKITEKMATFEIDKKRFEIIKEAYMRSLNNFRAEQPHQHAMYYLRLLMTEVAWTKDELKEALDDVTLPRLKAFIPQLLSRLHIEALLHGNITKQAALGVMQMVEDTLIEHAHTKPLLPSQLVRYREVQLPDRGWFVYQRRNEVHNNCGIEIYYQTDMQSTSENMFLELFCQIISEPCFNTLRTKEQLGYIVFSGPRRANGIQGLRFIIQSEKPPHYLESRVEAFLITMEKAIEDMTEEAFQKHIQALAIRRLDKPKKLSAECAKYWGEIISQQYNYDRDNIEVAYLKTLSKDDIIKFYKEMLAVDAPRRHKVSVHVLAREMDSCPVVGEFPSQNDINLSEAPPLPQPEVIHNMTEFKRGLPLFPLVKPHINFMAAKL
# T1 sequence (P08473 52-750 limits assumed): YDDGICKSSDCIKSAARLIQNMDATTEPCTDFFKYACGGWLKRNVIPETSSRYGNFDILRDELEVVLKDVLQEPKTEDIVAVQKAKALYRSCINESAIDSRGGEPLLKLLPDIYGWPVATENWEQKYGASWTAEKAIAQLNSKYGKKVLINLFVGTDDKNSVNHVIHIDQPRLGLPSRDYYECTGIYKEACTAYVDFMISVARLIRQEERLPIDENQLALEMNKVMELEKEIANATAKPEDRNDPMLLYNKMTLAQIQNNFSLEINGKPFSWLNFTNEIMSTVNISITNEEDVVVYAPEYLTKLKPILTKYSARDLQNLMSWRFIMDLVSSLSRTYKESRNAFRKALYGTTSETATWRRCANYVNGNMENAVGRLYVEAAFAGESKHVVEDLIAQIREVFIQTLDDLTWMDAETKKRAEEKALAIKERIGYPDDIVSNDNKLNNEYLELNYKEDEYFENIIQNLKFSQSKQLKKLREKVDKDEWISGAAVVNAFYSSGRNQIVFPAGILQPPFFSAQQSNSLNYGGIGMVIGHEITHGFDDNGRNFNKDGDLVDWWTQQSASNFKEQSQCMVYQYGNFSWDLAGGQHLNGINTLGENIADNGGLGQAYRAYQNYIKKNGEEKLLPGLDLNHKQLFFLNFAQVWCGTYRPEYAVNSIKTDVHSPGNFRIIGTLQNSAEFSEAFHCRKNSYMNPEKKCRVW
structure (smiles),measurement,setting,value
"CC[C@H](C)[C@@H]1NC(=O)[C@H](CCCNC(=N)N)NC(=O)[C@H](CC(=O)O)NC(=O)[C@H]([C@@H](C)CC)NC(=O)[C@H](CCCCN)NC(=O)[C@H](CCC(N)=O)NC(=O)CNC(=O)[C@H](Cc2ccccc2)NC(=O)[C@@H](NC(=O)[C@H](CO)NC(=O)[C@H](CO)NC(=O)[C@H](CO)NC(=O)[C@H](Cc2c[nH]cn2)NC(=O)[C@H](C)NC(=O)[C@H](CCSC)NC(=O)[C@H](CCCCN)NC(=O)[C@H](CO)NC(=O)[C@@H](N)CC(N)=O)CSSC[C@@H](C(=O)N[C@@H](CC(=O)O)C(=O)NCC(=O)N[C@@H](CC(C)C)C(=O)N[C@@H](CCCNC(=N)N)C(=O)N[C@@H](CC(C)C)C(=O)N[C@@H](Cc2ccccc2)C(=O)O)NC(=O)CNC(=O)[C@H](CC(C)C)NC(=O)[C@H](CCCNC(=N)N)NC(=O)[C@H](CO)NC(=O)[C@H](C(C)C)NC(=O)[C@H](C)NC(=O)CNC1=O [BNP, reference compound] (H-NSKMAHSSSCFGQKIDRIGAVSRLGCDGLRLF-OH; disulfide 10-26; N-terminus and C-terminus assumed)",sensitivity towards proteolytic degradation by NEP,[1],high sensitivity
same,sensitivity towards proteolytic degradation by IDE,[2],high sensitivity
